The subject of assay [1] is AMO-1 multiple myeloma xenografts. Description: Anti-tumor activity in vivo (Example D). Also on record: species or system SCID mice. Here is the method:
The anti-tumor activity of the compounds of the invention was evaluated using AMO-1 multiple myeloma xenografts.
1×10^7 cells were subcutaneously grafted into immunosuppressed SCID mice. 7-10 days later, when the tumor mass had reached an average volume of about 150 mm^3, mice were treated with the various compounds once a week for 2 weeks (per os, HEC 1%/Tween 80 99:1). Tumor size was measured three times per week using electronic calipers.
At the end of the treatment cycle (d9), tumor growth inhibition (TGI) was calculated using the formula: […]
wherein DTV (Delta Tumor Volume) at Dx was calculated as follows: […]
(Tumor Volume at Dx)−(Tumor Volume at Randomization).

The target in assay [2] is Cy5-labelled Mcl1 (amino acids 171-321) C286S protein (UniProtKB Q07820) (Homo sapiens (Human), UniProt Q07820, C286S). Description: Inhibition of Mcl-1 by the fluorescence quenching assay (Example A, Method B). Format: binding. The method, boiled down:
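Eleven-point compound series incubated 2 h at room temperature with 1 nM Cy5-tagged protein and quencher-labelled PUMA peptide at 10, 20 or 400 nM in HEPES/NaCl/Tween 20, pH 7.4, 5% DMSO. IC50 for 50% fluorescence increase by 4-parameter fit, then Ki derived (complete cKi or estimated eKi).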

The subject of assay [3] is NCI-H929 cell lines. Description: In vitro cytotoxicity, CellTiter-Glo (CTG) assay (Example B, Method B). The assay is classed as cell-based. The following applies: Homo sapiens, NCI-H929, 48 h, NCI-H929 cells, 48 h incubation, read-out: C50. The method, boiled down:
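ATP-based luminescence (CellTiter-Glo) after 48 h incubation at 37° C., 5% CO2 gave NCI-H929 viability. Eleven concentrations tested, highest final 30 μM, dispensed acoustically from 10 mM DMSO stocks; C50 defined as concentration reaching 50% viability.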
In general terms: In ATP-based viability assays light output follows the ATP content of the culture.

The test system of assay [4] is AMO-1 multiple myeloma xenograft. Description: Quantification of the cleaved form of PARP in vivo, per os (Example C). The arrangement: species or system SCID mice. The following applies: single dose per os, tumors recovered 16 hours after dosing. How it is done:
The ability of the compounds of the invention to induce apoptosis was evaluated in vivo using the AMO-1 multiple myeloma xenograft.
1×10^7 cells were subcutaneously grafted into immunosuppressed SCID mice. 12-14 days later, when tumors had reached the appropriate volume, mice (3 per group) were treated once with the various compounds (per os, HEC 1%/Tween 80 99:1). Tumor samples were recovered 16 hours after dosing and lysed. Cleared lysates were used for cleaved PARP quantification (as a marker of apoptosis induction) using the Meso Scale Discovery (MSD) Elisa platform test. Results are expressed as the ratio between cleaved PARP in treated mice over control mice.

[5] abbreviates: 30 mpk per os once a week for 2 weeks.
Where [6] appears, read: 60 mpk per os once a week for 2 weeks.

SMILES strings stand for the structures. Like-named read-outs stand apart in the source and are kept apart here.

Chain of Cy5-labelled Mcl1 (amino acids 171-321) C286S protein (Q07820 171-321 C286S): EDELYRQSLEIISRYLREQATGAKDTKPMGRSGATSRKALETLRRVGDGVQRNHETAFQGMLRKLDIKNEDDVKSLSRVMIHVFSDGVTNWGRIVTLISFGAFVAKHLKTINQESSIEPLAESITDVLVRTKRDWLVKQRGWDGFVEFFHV

One may read the Ki as a measure of affinity in units of concentration, obtained from inhibition or displacement. With `C[C@@H](COc1ccnc2c1[C@H](C)CCC2)CN1Cc2cc(F)ccc2[C@]12CC[C@@](Nc1cccc(Cl)c1)(C(=O)O)CC2` [Example 41, (1s,4S)-4-(3-chloroanilino)-5′-fluoro-2′-[(2R)-2-methyl-3-{[(5R)-5-methyl-5,6,7,8-tetrahydroquinolin-4-yl]oxy}propyl]-2′,3′-dihydrospiro[cyclohexane-1,1′-isoindole]-4-carboxylic acid], the entries for the “% TGI (d9)” value in assay [1] (setting [5]), in assay [1] (setting [6]) and in assay [1] (120 mpk per os once a week for 2 weeks) were 1%, 7.4% and 66.8%, respectively. The Ki in assay [2] (Ki determined from IC50) was 0.355 nM. For the same compound, in assay [3], the IC50 stood at 115 nM.
On to `C[C@@H](COc1ccnc2c1[C@H](C)CCC2)CN1Cc2cc3c(cc2[C@]12CC[C@@](Nc1cccc(Cl)c1)(C(=O)O)CC2)OCO3` [Example 44, (1s,4S)-4-(3-chloroanilino)-6′-[(2R)-2-methyl-3-{[(5R)-5-methyl-5,6,7,8-tetrahydroquinolin-4-yl]oxy}propyl]-6′,7′-dihydro-2′H-spiro[cyclohexane-1,5′-[1,3]dioxolo[4,5-f]isoindole]-4-carboxylic acid], for which the Ki in assay [2] (Ki determined from IC50) was 0.126 nM. The IC50 in assay [3] was 53.4 nM. The entries for the “Cleaved PARP (fold to control)” value in assay [4] (30 mpk), in assay [4] (60 mpk) and in assay [4] (120 mpk) were 0.7 fold to control, 0.7 fold to control and 1.4 fold to control, respectively.
Take `Cc1c(Cl)cccc1N[C@]1(C(=O)O)CC[C@]2(CC1)c1ccccc1C[C@@H]2C[C@@H](C)COc1ccnc2c1[C@H](C)CCC2` [Example 708, (1r,2′S,4S)-4-(3-chloro-2-methylanilino)-2′-[(2R)-2-methyl-3-{[(5R)-5-methyl-5,6,7,8-tetrahydroquinolin-4-yl]oxy}propyl]-2′,3′-dihydrospiro[cyclohexane-1,1′-indene]-4-carboxylic acid]: the Ki in assay [2] was 0.362 nM. Also, the IC50 in assay [3] amounted to 107 nM. For the same compound, the “Cleaved PARP (fold to control)” value in assay [4] (120 mpk) is on record as 12.6 fold to control.
On to `C[C@@H](COc1ccnc2c1[C@H](C)CCC2)C[C@H]1Cc2cc(F)ccc2[C@]12CC[C@@](Nc1cccc(Cl)c1)(C(=O)O)CC2` [Example 768, (1r,2′S,4S)-4-(3-chloroanilino)-5′-fluoro-2′-[(2R)-2-methyl-3-{[(5R)-5-methyl-5,6,7,8-tetrahydroquinolin-4-yl]oxy}propyl]-2′,3′-dihydrospiro[cyclohexane-1,1′-indene]-4-carboxylic acid], for which, in assay [2], the Ki came to 0.109 nM. Also, the IC50 in assay [3] was determined as 49.6 nM. The “Cleaved PARP (fold to control)” value in assay [4] (30 mpk) was 0.8 fold to control; in assay [4] (60 mpk) it was 15.4 fold to control; in assay [4] (120 mpk), 30.3 fold to control.
Take `CC(C)Oc1ccc2c(c1)[C@]1(CC[C@@](Nc3cccc(Cl)c3)(C(=O)O)CC1)[C@@H](C[C@@H](C)COc1ccnc3c1[C@H](C)CCC3)C2` [Example 786, (1r,2′S,4S)-4-(3-chloroanilino)-2′-[(2R)-2-methyl-3-{[(5R)-5-methyl-5,6,7,8-tetrahydroquinolin-4-yl]oxy}propyl]-6′-[(propan-2-yl)oxy]-2′,3′-dihydrospiro[cyclohexane-1,1′-indene]-4-carboxylic acid]: the “% TGI (d9)” value was determined as 43.2% in assay [1] (setting [5]) and 98.9% in assay [1] (setting [6]). The inhibition constant (Ki) in assay [2] is 0.0803 nM. For the same compound, the IC50 in assay [3] was found to be 77.2 nM.
Take `COC(C)(C)c1ccc2c(c1)[C@]1(CC[C@@](Nc3cccc(Cl)c3)(C(=O)O)CC1)[C@@H](C[C@@H](C)COc1ccnc3c1[C@H](C)CCC3)C2` [Example 866, (1r,2′S,4S)-4-(3-chloroanilino)-6′-(2-methoxypropan-2-yl)-2′-[(2R)-2-methyl-3-{[(5R)-5-methyl-5,6,7,8-tetrahydroquinolin-4-yl]oxy}propyl]-2′,3′-dihydrospiro[cyclohexane-1,1′-indene]-4-carboxylic acid]: the Ki in assay [2] stood at 0.0213 nM. Further, the “Cleaved PARP (fold to control)” value in assay [4] (30 mpk) was 1.2 fold to control; in assay [4] (60 mpk), 6.5 fold to control; in assay [4] (120 mpk), 6.3 fold to control.
As to `C[C@@H](COc1ccnc2c1[C@H](C)CCC2)C[C@H]1Cc2cc3c(cc2[C@]12CC[C@@](Nc1cccc(Cl)c1)(C(=O)O)CC2)O[C@H](C)CCO3` [Example 987, (1r,4S,4′R,8′S)-4-(3-chloroanilino)-4′-methyl-8′-[(2R)-2-methyl-3-{[(5R)-5-methyl-5,6,7,8-tetrahydroquinolin-4-yl]oxy}propyl]-3′,4′,8′,9′-tetrahydro-2′H-spiro[cyclohexane-1,7′-indeno[5,6-b][1,4]dioxepine]-4-carboxylic acid], in assay [2], the Ki came to 0.00447 nM. Further, in assay [3], the IC50 came to 37.7 nM.
For `C[C@@H](COc1ccnc2c1[C@H](C)CCC2)C[C@H]1Cc2cc3c(cc2[C@]12CC[C@@](Nc1cccc(Cl)c1)(C(=O)O)CC2)OCC1(CC1)CO3` [Example 994, (1r,4S,8′S)-4-(3-chloroanilino)-8′-[(2R)-2-methyl-3-{[(5R)-5-methyl-5,6,7,8-tetrahydroquinolin-4-yl]oxy}propyl]-8′,9′-dihydro-2′H,4′H-dispiro[cyclohexane-1,7′-indeno[5,6-b][1,4]dioxepine-3′,1″-cyclopropane]-4-carboxylic acid], the Ki in assay [2] stood at 0.0442 nM. In assay [3], the IC50 amounted to 59.7 nM.
On to `C[C@@H](COc1ccnc2c1[C@H](C)CCC2)C[C@H]1Cc2cc3c(cc2[C@]12CC[C@@](Nc1cccc(Cl)c1)(C(=O)O)CC2)OCC1(CCC1)CO3` [Example 995, (1″r,4″S,8′S)-4″-(3-chloroanilino)-8′-[(2R)-2-methyl-3-{[(5R)-5-methyl-5,6,7,8-tetrahydroquinolin-4-yl]oxy}propyl]-8′,9′-dihydro-2′H,4′H-dispiro[cyclobutane-1,3′-indeno[5,6-b][1,4]dioxepine-7′,1″-cyclohexane]-4″-carboxylic acid], for which the Ki in assay [2] is 0.0885 nM. The IC50 in assay [3] is 108 nM.
The corresponding values for `C[C@@H](COc1ccnc2c1[C@H](C)CCC2)C[C@H]1Cc2cc3c(cc2[C@]12CC[C@@](Nc1cccc(Cl)c1)(C(=O)O)CC2)OCC(F)(F)CO3` [Example 996, (1r,4S,8′S)-4-(3-chloroanilino)-3′,3′-difluoro-8′-[(2R)-2-methyl-3-{[(5R)-5-methyl-5,6,7,8-tetrahydroquinolin-4-yl]oxy}propyl]-3′,4′,8′,9′-tetrahydro-2′H-spiro[cyclohexane-1,7′-indeno[5,6-b][1,4]dioxepine]-4-carboxylic acid] are 0.028 nM and 84.5 nM.
For `CC(C)[C@@H]1CCOc2cc3c(cc2O1)C[C@H](C[C@@H](C)COc1ccnc2c1[C@H](C)CCC2)[C@]31CC[C@](Nc2cccc(Cl)c2)(C(=O)O)CC1` [Example 997, (1r,2′S,4S,8′S)-4-(3-chloroanilino)-8′-[(2R)-2-methyl-3-{[(5R)-5-methyl-5,6,7,8-tetrahydroquinolin-4-yl]oxy}propyl]-2′-(propan-2-yl)-3′,4′,8′,9′-tetrahydro-2′H-spiro[cyclohexane-1,7′-indeno[5,6-b][1,4]dioxepine]-4-carboxylic acid], in assay [2], the Ki came out at 4.15 nM. Further, in assay [3], the IC50 was determined as 965 nM.
In the case of `CC(C)[C@@H]1CCOc2cc3c(cc2O1)[C@]1(CC[C@@](Nc2cccc(Cl)c2)(C(=O)O)CC1)[C@@H](C[C@@H](C)COc1ccnc2c1[C@H](C)CCC2)C3` [Example 998, (1r,4S,4'S,8′S)-4-(3-chloroanilino)-8′-[(2R)-2-methyl-3-{[(5R)-5-methyl-5,6,7,8-tetrahydroquinolin-4-yl]oxy}propyl]-4′-(propan-2-yl)-3′,4′,8′,9′-tetrahydro-2′H-spiro[cyclohexane-1,7′-indeno[5,6-b][1,4]dioxepine]-4-carboxylic acid], the Ki in assay [2] was 0.106 nM. Also, the IC50 in assay [3] was determined as 63.1 nM.

The record behind these values is US20240150293A1, “SPIROCYCLOHEXANE DERIVATIVES, PHARMACEUTICAL COMPOSITIONS CONTAINING THEM AND THEIR USES AS ANTI-APOPTOTIC INHIBITORS” (LES LABORATOIRES SERVIER, priority 2021, published 2024).
